Results: publication PMC8871312, “Effects of Microbial Transformation on the Biological Activities of Prenylated Chalcones from Angelica keiskei” (Foods, 2022)

molecular target: T1, Tyrosinase from mushroom; assay: dopachrome absorbance at […] nm; type: biochemical; details: 2 mM L-tyrosine, 0.1 M phosphate pH 6.5, 37 °C, 30 min, 150 U/mL enzyme; read-out: IC50 ± SD (μM) / Tyrosinase
T1 construct: gene PPO3

`CC(C)=CCc1c(O)ccc(C(=O)/C=C/c2ccc(O)cc2)c1O` [compound 1, isobavachalcone] and `CC(C)=CCC/C(C)=C/Cc1c(O)ccc(C(=O)/C=C/c2ccc(O)cc2)c1O` [compound 3, xanthoangelol] cannot be ordered by IC50: greater than 100 µM for the first, greater than 100 µM for the second.

Compared with `CC(C)(O)CCc1c(O[C@@H]2O[C@H](CO)[C@@H](O)[C@H](O)[C@H]2O)ccc(C(=O)/C=C/c2ccc(O)cc2)c1O` [compound 4, 3′-(3-Hydroxy-3-methylbutyl)-4′-O-β-D-glucopyranosyl-4,2′-dihydroxychalcone], `COC(C)(C)CCc1c(O[C@@H]2O[C@H](CO)[C@@H](O)[C@H](O)[C@H]2O)ccc(C(=O)/C=C/c2ccc(O)cc2)c1O` [compound 5, 3′-(3-O-Methyl-3-methylbutyl)-4′-O-β-D-glucopyranosyl-4,2′-dihydroxychalcone] is 2.7-fold lower in IC50: 78.5 ± 3.13 µM for the first, 28.7 ± 1.24 µM for the second. The second is the more potent here.

Going from `CC(C)=CCc1c(O[C@@H]2O[C@H](CO)[C@@H](O)[C@H](O)[C@H]2O)ccc(C(=O)/C=C/c2ccc(O)cc2)c1O` [compound 6, 3′-(3-methyl-2-butenyl)-4′-O-β-D-glucopyranosyl-4,2′-dihydroxychalcone] to `CC(C)=CCC/C(C)=C/Cc1c(O[C@@H]2O[C@H](CO)[C@@H](O)[C@H](O)[C@H]2O)ccc(C(=O)/C=C/c2ccc(O)cc2)c1O` [compound 10, 4′-O-β-D-Glucopyranosyl xanthoangelol], the IC50 rises from 43.1 ± 6.74 µM to 71.7 ± 9.22 µM (1.7-fold).

`CCOC(C)(C)CCc1c(O[C@@H]2O[C@H](CO)[C@@H](O)[C@H](O)[C@H]2O)ccc(C(=O)/C=C/c2ccc(O)cc2)c1O` [compound 7, 3′-(3-O-Ethyl-3-methylbutyl)-4′-O-β-D-glucopyranosyl-4,2′-dihydroxychalcone] gave an IC50 of 33.3 ± 1.16 µM.

molecular target: T1, Tyrosinase from mushroom; assay: dopachrome absorbance at […] nm; type: biochemical; details: 2 mM L-tyrosine, 0.1 M phosphate pH 6.5, 37 °C, 30 min, 150 U/mL enzyme; read-out: IC50 ± SD (μM) / Tyrosinase; remark: another data set of the same source

For `COc1ccc(C(=O)/C=C/c2ccc(O)cc2)c(O)c1CC=C(C)C` [compound 2, 4-hydroxyderricin], the IC50 was greater than 100 µM.
